Data: patent publication US6982252B2, “Inhibition of vacuolar proton ATPase activity and/or the modulation of acidic organelle function sensitizes cells to radiation, chemotherapy and biological agents” (Memorial Sloan-Kettering Cancer Center, priority 2000, dated 2006)
Several values for one entry are separate records, joined by “and”; a condition that tells them apart may be missing. Equal values may be shown once. Marks after values point to notes of the source that are not given here.

Assays:
[1] = tested on: AVO-EM in irradiated MCF-7 cells; experiment: Electron microscopy of AVO-EM; assay type: cell-based, human; details: 3-methyladenine 5 mM; 10 Gy; without it 94%
Description: Cell processing for electron microscopy and staining with N-(3-(2,4-dinitrophenyl)-N-(3-aminopropyl))methylamine dihydrochloride (DAMP; Molecular Probes, Eugene, Oreg.) was performed as set forth in Anderson et al., 1984, Proc. Natl. Acad. Sci. U.S.A. 81:4838-4842 and Dunn et al., 1990, J. Cell Biol. 110:1935-1945. The fraction of the cytoplasmic volume occupied by AVO (fractional volume of AVO) was quantified from electron micrographs according to Dunn and Lenk et al., (Dunn et al., 1990, J. Cell Biol. 110:1935-1945; Lenk et al., 1992, J. Cell Biol. 118:301-308). Digital Images of the micrographs were obtained using an Epson ES-1200S flat bed scanner with Adobe Photoshop version 5. The fractional volume was calculated with Image Pro Plus Version 3 and expressed as a percentage of the total cytoplasmic volume.

[2] = tested on: acidic vesicular organelles (AVO) in MCF-7 cells; experiment: Mean red/green fluorescence ratio in acridine orange stained cells by flow cytometry; assay type: cell-based, human
Description: bFGF was added to cultures of MCF-7 cells at 10 ng/ml for 48 hours. TNF was added at 2.3 nM for 48 hours. PMA was added for 1 hour at a concentration of 30 nM, followed by rinsing of the cells and incubation for an additional 48 hours.
Cell staining was performed according to standard techniques (Arvan et al., 1984, J. Bio. Chem. 259:13567-13572; Mains and May, 1988, J. Biol. Chem. 263:7887-7894; Traganos and Darzynkiewicz, Methods in Cell Biology 41:185-194, Academic Press). Acridine orange (Polysciences, Warrington, Pa.) was added to a final concentration of 1 μg/ml for 15 minutes. Bafilomycin A1 (Sigma Chemical Co., St. Louis, Mo.) was dissolved in DMSO and added to the cells 30 minutes prior to the addition of acridine orange. LysoSensor Blue DND-167 (Molecular Probes, Eugene, Oreg.) at a final concentration of 10 μM was added for 8 minutes. Pictures were obtained with a fluorescence microscope (Olympus BH-2 RFCA), equipped with a mercury-100 W lamp, 490 nm band pass blue excitation filters, 500 nm dichroic mirror and a 515 nm long pass barrier filter. Images of control and irradiated cells were recorded on Kodak Elite II 100 ASA film for color slides by 4 seconds exposure.
In acridine orange stained cells the cytoplasm and nucleolus fluoresce bright green and dim red, while acidic compartments fluoresce bright red (Mains and May, 1988, J. Biol. Chem. 263:7887-7894; Traganos and Darzynkiewicz, Methods in Cell Biology Vol. 41, pp. 185-194, Academic Press). The intensity of the red fluorescence is proportional to the degree of acidity and/or the volume of the cellular acidic compartment. Therefore, by comparing the mean red/green fluorescence ratio within different cell populations, a change in the degree of acidity and/or the fractional volume of the cellular acidic compartment could be measured. Cells were stained with acridine orange for […], removed from the plate with trypsin-EDTA and collected in phenol red-free growth medium. Green (510-530 nm) and red (>650 nm) Fluoresence emission from 10,000 cells illuminated with blue (488 nm) excitation light was measured with a FACSCalibur from Becton Dickinson (San Jose, Calif.) using CellQuest software. The red to green fluorescence ratio for individual cells was calculated using FlowJo software (TREE STAR, Inc., San Carlos, Calif.). To control for possible effect of trypsinization on the measured red to green fluorescence ratio, the ratios were compared by flow cytometry with those obtained with a Laser Scanning Microscope (LSM510 from Zeiss). Stained cells, grown on cover glass, were illuminated with a 488 nm argon laser beam. The red (>650 nm) to green (505-545 nm) fluorescence ratio of an entire image was obtained using software LSM 510 version 2.01 SP2. These measurements yielded similar results to those obtained with flow cytometry. All determinations of red to green fluorescence ratio reported in this section were obtained via flow cytometry.

[3] = tested on: LoVo (human colon adenocarcinoma); experiment: Clonogenic survival (surviving fraction) of LoVo cells after radiation or chemotherapeutic agent; assay type: cell-based
Description: (§1) MCF-7 (human breast adenocarcinoma), LoVo (human colon adenocarcinoma) and LNCaP (human prostate carcinoma) were obtained from the American Type Culture Collection. Cells were maintained as described in Paglin et al., 1997, Biochem. Biophs. Res. Comm. 237:678-684). Irradiation was carried out 48 hours post-plating (T0) at room temperature using a Cs-137 irradiator (Sheperd Mark-I, model 68, SN643) at a dose rate of 2.43-2.32 Gy/min. Bovine aortic endothelial cells were grown and treated with H2O2 as described in Haimovitz-Friedman et al., 1994, J. Exp. Med. 180:525-535 and Verhij et al., 1996, Nature 380:75-79. Phorbol 12-myristate 13-acetate (PMA; Alexis Biochemicals Corp., San Diego, Calif.) was dissolved in dimethyl sulfoxide (DMSO) and added to cells for the duration of one hour. The final DMSO concentration was 0.03%. The cells were then rinsed with warm growth medium before being returned to the incubator for an additional 48 hours.
(§2) Cells were plated in growth medium at a density of 30-90 cells per square centimeter and irradiated 22 hours later. Each experimental condition was done in quintet or triplicate. Cells were irradiated at room temperature in Cs-137 Irradiator (Sheperd Mark-I, Model 68, SN 643) at a rate of 2.43-2.32 Gy/min. […] For determination of their red to green ratio, colonies were processed as described above. For determination of surviving fractions cells were stained with crystal violet and colonies containing 50 cells or more were counted with a dissecting microscope. The surviving fraction was defined as the ratio between the plating efficiencies of irradiated and non-irradiated cells and was calculated at each dose level according to Hall and Phill (1994, […] for the Radiologist, 4th Edition, J. Lippincott Co., Philadelphia).

[4] = tested on: MCF-7 (human breast adenocarcinoma); experiment: Clonogenic survival (surviving fraction) of MCF-7 cells after radiation or chemotherapeutic agent; assay type: cell-based
[5] = tested on: MCF-7 (human breast adenocarcinoma); experiment: as above; assay type: cell-based; details: for Surviving Fraction 100 nM Adriamycin / Surviving Fraction: Table 16
Description: as §1, §2

AVO in MCF-7 cells = experiment: Vital staining with acridine orange, fluorescence microscopy; assay type: cell-based, human; details: pre-incubation with 300 μM chloroquine
Description: Acridine orange (Polysciences, Warrington, Pa.) was added to a final concentration of 1 μg/ml for 15 minutes. […] Pictures were obtained with a fluorescence microscope (Olympus BH-2 RFCA), equipped with a mercury-100 W lamp, 490 nm band pass blue excitation filters, 500 nm dichroic mirror and a 515 nm long pass barrier filter. Images of control and irradiated cells were recorded on Kodak Elite II 100 ASA film for color slides by 4 seconds exposure.

Cn1cnc(N)c2ncnc1-2 [3-methyladenine]
fraction of cells containing AVO-EM [1]: 22%
red to green ratio ([2]; 3-methyladenine 5 mM, 48 hours following radiation with 10 Gy, without it 1.77±0.01, n=3): 1.15±0.01

COc1cccc2c1C(=O)c1c(O)c3c(c(O)c1C2=O)C[C@@](O)(C(=O)CO)C[C@@H]3O[C@H]1C[C@H](N)[C@H](O)[C@H](C)O1 [Adriamycin]
Surviving Fraction Without Bafilomycin ([3]; Adriamycin 50 nM alone): 0.84 ± 0.01
Surviving Fraction Without Bafilomycin ([3]; Adriamycin 100 nM alone): 0.77 ± 0.01
Surviving Fraction Without Bafilomycin ([3]; Adriamycin 150 nM alone): 0.47 ± 0.02
survival, Adriamycin 100 nM ([3]; Table 17, Adriamycin 100 nM alone, 48 hours): 0.94 ± 0.1
survival, column Adriamycin ([4]; Table 15, 100 nM adriamycin alone (Bafilomycin 0 nM)): 0.88 ± 0.08
Surviving Fraction 100 nM Adriamycin ([5]; MCF-7, 100 nM Adriamycin alone (Salicilyhalamide 0 nM)): 0.88 ± 0.08

C[C@]12CC[C@@H]3c4ccc(O)cc4CC[C@H]3[C@@H]1CC[C@@H]2O [Estradiol]
Fold increase of Red:Green ([2]; Estradiol 10^−9 M alone): 1 fold
inhibition of the effect of tamoxifen on appearance of acidic vesicular organelles ([2]; estradiol 10^−9 M with tamoxifen, Table 23): 50%

COc1cc([C@@H]2c3cc4c(cc3[C@@H](O[C@@H]3O[C@@H]5CO[C@@H](C)O[C@H]5[C@H](O)[C@H]3O)[C@H]3COC(=O)[C@H]23)OCO4)cc(OC)c1O [Etoposide]
cell survival (head of column empty) ([3]; Table 19, Etoposide 0.05 μg/ml alone): 0.78 ± 0.05
cell survival (head of column empty) ([5]; Table 18, MCF-7, Etoposide 0.05 μg/ml alone): (0.79; 0.77) 0.78*

CCCCCCCCCCCCCC(=O)O[C@@H]1[C@@H](C)[C@@]2(O)[C@@H](C=C(CO)C[C@]3(O)C(=O)C(C)=C[C@@H]23)[C@@H]2C(C)(C)[C@]12OC(C)=O [PMA, Phorbol 12-myristate 13-acetate]
Fold Increase in Red: Green ([2]; MCF-7, PMA 30 nM for 1 hour, rinsed, additional 48 hours): 1.7±0.3 fold and 1.7 ± 0.3 (n = 3) fold

CO[C@H]1C[C@@H]2CC[C@@H](C)[C@@](O)(O2)C(=O)C(=O)N2CCCC[C@H]2C(=O)O[C@H]([C@H](C)C[C@@H]2CC[C@@H](O)[C@H](OC)C2)CC(=O)[C@H](C)/C=C(\C)[C@@H](O)[C@@H](OC)C(=O)[C@H](C)C[C@H](C)/C=C/C=C/C=C/1C [Rapamycin, rapamycin]
Fold Increase in Red:Green 48 hrs ([2]; Table 21, MCF-7, 20 nM rapamycin): 1.96 fold
Fold Increase in Red:Green 48 hrs ([2]; Table 21, MCF-7, 50 nM rapamycin): 2.31 fold
Fold Increase in Red:Green 24 hrs ([2]; Table 22, Rapamycin 10 nM): 1.7 fold
Fold Increase in Red:Green 48 hrs ([2]; Table 22, Rapamycin 10 nM): 1.6 fold
Fold Increase in Red:Green 24 hrs ([2]; Table 22, Rapamycin 20 nM): 1.7 fold
Fold Increase in Red:Green 48 hrs ([2]; Table 22, Rapamycin 20 nM): 1.4 fold

CC/C=C\C=C/C(=O)N/C=C/C[C@H]1C[C@@H](O)[C@@H](C)C/C=C/Cc2cccc(O)c2C(=O)O1 [Salicylihalamide A]
decrease of survival ([4]; 50 nM salicylihalamide A in combination with 100 nM Adriamycin): 25%
decrease of survival of irradiated cells ([5]; 25 nM salicylihalamide A, 3 Gy): 30%
Surviving Fraction 0 Gy ([5]; Salicylihalamide A 12.5 nM): 1.14 ± 0.07
Surviving Fraction 3 Gy ([5]; Salicylihalamide A 12.5 nM, 3 Gy): 0.38 ± 0.03
Surviving Fraction 0 Gy ([5]; Salicylihalamide A 25 nM): 0.92 ± 0.08
Surviving Fraction 0 Gy ([5]; Salicylihalamide A 25 nM, listed as salicylihalamide A): did not significantly affect
Surviving Fraction 3 Gy ([5]; Salicylihalamide A 25 nM, 3 Gy): 0.32 ± 0.03
Surviving Fraction 0 Gy ([5]; Salicylihalamide A 50 nM): 0.72 ± 0.09
Surviving Fraction 3 Gy ([5]; Salicylihalamide A 50 nM, 3 Gy): 0.22 ± 0.04
Surviving Fraction 0 Gy ([5]; Salicylihalamide A 100 nM): 0.53 ± 0.03
Surviving Fraction 3 Gy ([5]; Salicylihalamide A 100 nM, 3 Gy): 0.11 ± 0.02
Surviving Fraction 100 nM Adriamycin ([5]; MCF-7, Salicilyhalamide 25 nM + 100 nM Adriamycin): 0.79 ± 0.05
Surviving Fraction ([5]; MCF-7, Salicilyhalamide 25 nM alone): 1.03 ± 0.03
Surviving Fraction 100 nM Adriamycin ([5]; MCF-7, Salicilyhalamide 50 nM + 100 nM Adriamycin): 0.66 ± 0.04
Surviving Fraction ([5]; MCF-7, Salicilyhalamide 50 nM alone, listed as Salicilyhalamide): 0.95 ± 0.01
Surviving Fraction ([5]; MCF-7, Salicilyhalamide 50 nM alone, listed as salicylihalamide A): minimal effect
Surviving Fraction 100 nM Adriamycin ([5]; MCF-7, Salicilyhalamide 100 nM + 100 nM Adriamycin): 0.57 ± 0.01
Surviving Fraction ([5]; MCF-7, Salicilyhalamide 100 nM alone): 0.78 ± 0.04

CC/C(=C(\c1ccccc1)c1ccc(OCCN(C)C)cc1)c1ccccc1 [Tamoxifen]
Fold increase of Red:Green ([2]; Tamoxifen 2 × 10^−6 M): 1.6 fold
Fold increase of Red:Green ([2]; Tamoxifen 2 × 10^−6 M + Estradiol 10^−9 M): 1.33 fold
Fold increase of Red:Green ([2]; Tamoxifen 10^−6 M): 1.5 fold
Fold increase of Red:Green ([2]; Tamoxifen 10^−6 M + Estradiol 10^−9 M): 1.25 fold

CCN(CC)CCCC(C)Nc1ccnc2cc(Cl)ccc12 (stereo not drawn) [chloroquine]
acridine orange accumulation in the AVO (AVO in MCF-7 cells): inhibited acridine orange accumulation

bFGF: cytokine tested as inducer of acidic organelle formation
Fold Increase in Red: Green ([2]; MCF-7, bFGF 10 ng/ml for 48 hours): 2.23 ± 0.18 (n = 3) fold

z-VAD-fmk
mean red to green fluorescence ratio ([2]; z-VAD-fmk 50 μM added 1 hour before irradiation, 10 Gy, 24 hours following irradiation): 2.5 ± 0.04
mean red to green fluorescence ratio ([2]; z-VAD-fmk 50 μM added 1 hour before, unirradiated, 24 hours): 1.4 ± 0.07
